# Results as given in PubChem BioAssay AID1963845 (Molecular Pharmacology Branch, DTP, NCI, 2024).
# pIC50: −log10 of the molar value.
# Tested on: 429239-143-T-J1-PDC complex spheroid viability
# Test: Anticancer human tumor 429239-143-T-J1-PDC patient-derived small cell lung carcinoma cell line growth inhibition [POLQ]
# Details: for pIC50: curve of first compound; for viability, T/C: stronger effect = lower value
# Method in brief: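 PDC + HUVEC + MSC complex spheroids; POLQ inhibitors ± partner drugs; top conc. at/near clinical Cmax, else 10 microM (SN-38 1 microM), half-log dilutions; 37 degrees C, 5% CO2.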
# [1] = second compound 0.0316 µM, first compound 0.0316 µM
# [2] = second compound 0.0316 µM, first compound 0.1 µM
# [3] = second compound 0.1 µM, first compound 0.0316 µM
# [4] = second compound 0.1 µM, first compound 0.1 µM
# [5] = second compound 0.316 µM, first compound 0.0316 µM
# [6] = second compound 0.316 µM, first compound 0.1 µM
# [7] = second compound 1 µM, first compound 0.0316 µM
# [8] = second compound 1 µM, first compound 0.1 µM
# [9] = second compound 3.16 µM, first compound 0.0316 µM
# [10] = second compound 3.16 µM, first compound 0.1 µM
# [11] = second compound 10 µM, first compound 0.0316 µM
# [12] = second compound 10 µM, first compound 0.1 µM
# 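Note: luminescence signal used as surrogate measure of viable cells; spheroids exposed to compounds for seven days before readout.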
# 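Throughout, for viability, T/C: 100% = DMSO vehicle control viability as luminescence relative to vehicle.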
smiles,measurement,setting,value
Cn1ncnc1[C@H]1c2n[nH]c(=O)c3cc(F)cc(c23)N[C@@H]1c1ccc(F)cc1 + COC1C(OC(N)=O)C(O)C(Oc2ccc3c(O)c(NC(=O)c4ccc(O)c(CC=C(C)C)c4)c(=O)oc3c2C)OC1(C)C,pIC50,second compound 0.0316 µM,7.61
same,pIC50,second compound 0.1 µM,7.86
same,pIC50,second compound 0.316 µM,7.63
same,pIC50,second compound 1 µM,7.81
same,pIC50,second compound 3.16 µM,7.86
same,pIC50,second compound 10 µM,7.84
same,"viability, T/C","second compound 0.0316 µM, first compound 0.000316 µM",97.7%
same,"viability, T/C","second compound 0.0316 µM, first compound 0.001 µM",89.6%
same,"viability, T/C","second compound 0.0316 µM, first compound 0.00316 µM",83.6%
same,"viability, T/C","second compound 0.0316 µM, first compound 0.01 µM",62.6%
same,"viability, T/C",[1],47%
same,"viability, T/C",[2],27.8%
same,"viability, T/C","second compound 0.1 µM, first compound 0.000316 µM",104%
same,"viability, T/C","second compound 0.1 µM, first compound 0.001 µM",105%
same,"viability, T/C","second compound 0.1 µM, first compound 0.00316 µM",84.6%
same,"viability, T/C","second compound 0.1 µM, first compound 0.01 µM",51.5%
same,"viability, T/C",[3],45.5%
same,"viability, T/C",[4],27.8%
same,"viability, T/C","second compound 0.316 µM, first compound 0.000316 µM",94.2%
same,"viability, T/C","second compound 0.316 µM, first compound 0.001 µM",92.4%
same,"viability, T/C","second compound 0.316 µM, first compound 0.00316 µM",88.7%
same,"viability, T/C","second compound 0.316 µM, first compound 0.01 µM",64.5%
same,"viability, T/C",[5],45.7%
same,"viability, T/C",[6],22.8%
same,"viability, T/C","second compound 1 µM, first compound 0.000316 µM",98.4%
same,"viability, T/C","second compound 1 µM, first compound 0.001 µM",93.5%
same,"viability, T/C","second compound 1 µM, first compound 0.00316 µM",82.9%
same,"viability, T/C","second compound 1 µM, first compound 0.01 µM",57.6%
same,"viability, T/C",[7],36.8%
same,"viability, T/C",[8],25.4%
same,"viability, T/C","second compound 3.16 µM, first compound 0.000316 µM",92.1%
same,"viability, T/C","second compound 3.16 µM, first compound 0.001 µM",90%
same,"viability, T/C","second compound 3.16 µM, first compound 0.00316 µM",77.7%
same,"viability, T/C","second compound 3.16 µM, first compound 0.01 µM",58.1%
same,"viability, T/C",[9],31.5%
same,"viability, T/C",[10],27.8%
same,"viability, T/C","second compound 10 µM, first compound 0.000316 µM",89.5%
same,"viability, T/C","second compound 10 µM, first compound 0.001 µM",90.9%
same,"viability, T/C","second compound 10 µM, first compound 0.00316 µM",78.9%
same,"viability, T/C","second compound 10 µM, first compound 0.01 µM",53.4%
same,"viability, T/C",[11],39.6%
same,"viability, T/C",[12],25.1%
Nc1ccn(C2OC(CO)C(O)C2(F)F)c(=O)n1 (centres undefined) + COC1C(OC(N)=O)C(O)C(Oc2ccc3c(O)c(NC(=O)c4ccc(O)c(CC=C(C)C)c4)c(=O)oc3c2C)OC1(C)C,pIC50,second compound 0.0316 µM,> 7.50
same,pIC50,second compound 0.1 µM,> 7.50
same,pIC50,second compound 0.316 µM,> 7.50
same,pIC50,second compound 1 µM,> 7.50
same,pIC50,second compound 3.16 µM,> 7.50
same,pIC50,second compound 10 µM,> 7.50
same,"viability, T/C",[1],23.4%
same,"viability, T/C",[2],19.2%
same,"viability, T/C","second compound 0.0316 µM, first compound 0.316 µM",19.7%
same,"viability, T/C","second compound 0.0316 µM, first compound 1 µM",16.5%
same,"viability, T/C","second compound 0.0316 µM, first compound 3.16 µM",17.5%
same,"viability, T/C","second compound 0.0316 µM, first compound 10 µM",16.4%
same,"viability, T/C",[3],15.1%
same,"viability, T/C",[4],17.8%
same,"viability, T/C","second compound 0.1 µM, first compound 0.316 µM",18.2%
same,"viability, T/C","second compound 0.1 µM, first compound 1 µM",17.4%
same,"viability, T/C","second compound 0.1 µM, first compound 3.16 µM",17.3%
same,"viability, T/C","second compound 0.1 µM, first compound 10 µM",16.1%
same,"viability, T/C",[5],22.2%
same,"viability, T/C",[6],17.1%
same,"viability, T/C","second compound 0.316 µM, first compound 0.316 µM",16.7%
same,"viability, T/C","second compound 0.316 µM, first compound 1 µM",18.4%
same,"viability, T/C","second compound 0.316 µM, first compound 3.16 µM",16.9%
same,"viability, T/C","second compound 0.316 µM, first compound 10 µM",14.8%
same,"viability, T/C",[7],17.4%
same,"viability, T/C",[8],17.4%
same,"viability, T/C","second compound 1 µM, first compound 0.316 µM",17.8%
same,"viability, T/C","second compound 1 µM, first compound 1 µM",16.1%
same,"viability, T/C","second compound 1 µM, first compound 3.16 µM",18.4%
same,"viability, T/C","second compound 1 µM, first compound 10 µM",21%
same,"viability, T/C",[9],14.9%
same,"viability, T/C",[10],13.9%
same,"viability, T/C","second compound 3.16 µM, first compound 0.316 µM",19.1%
same,"viability, T/C","second compound 3.16 µM, first compound 1 µM",12.5%
same,"viability, T/C","second compound 3.16 µM, first compound 3.16 µM",16.3%
same,"viability, T/C","second compound 3.16 µM, first compound 10 µM",13.5%
same,"viability, T/C",[11],14.5%
same,"viability, T/C",[12],16.9%
same,"viability, T/C","second compound 10 µM, first compound 0.316 µM",17.5%
same,"viability, T/C","second compound 10 µM, first compound 1 µM",20.4%
same,"viability, T/C","second compound 10 µM, first compound 3.16 µM",17%
same,"viability, T/C","second compound 10 µM, first compound 10 µM",17.1%
